Data as given in PubChem BioAssay AID328 (DTP/NCI, 2004).
“And” between values parts separate entries of the source, which are not always exact repeats. Equal entries are not always repeated. Inconclusive results and toxic doses are left out.

Tested on: BDF1 mice, P388 leukemia ip, median survival T/C
Test: NCI In Vivo Anticancer Drug Screen. Data for tumor model P388 Leukemia (intraperitoneal) in B6D2F1 (BDF1) mice
Details: endpoint: median survival time, higher = longer survival
How it was run: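 Reported as T/C, where T is the survival measurement in dosed animals and C the same measurement in vehicle controls.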

[1] = dose: 50.0 mg/kg/injection, schedule: Q01DX009 (ip), vehicle: saline with Tween-80
[2] = dose: 100.0 mg/kg/injection, schedule: Q01DX009 (ip), vehicle: Klucel (hydroxypropylcellulose) (HPC)
[3] = dose: 100.0 mg/kg/injection, schedule: Q04DX003 (ip), vehicle: Klucel (hydroxypropylcellulose) (HPC)
[4] = dose: 200.0 mg/kg/injection, schedule: Q04DX003 (ip), vehicle: Klucel (hydroxypropylcellulose) (HPC)
[5] = dose: 1.56 mg/kg/injection, schedule: Q01DX009 (ip), vehicle: saline
[6] = dose: 3.12 mg/kg/injection, schedule: Q01DX009 (ip), vehicle: saline
[7] = dose: 6.25 mg/kg/injection, schedule: Q01DX009 (ip), vehicle: saline
[8] = dose: 12.5 mg/kg/injection, schedule: Q01DX009 (ip), vehicle: saline

Question: What does the source list for O[O][Ge]([c]1ccccc1)([c]1ccccc1)[c]1ccccc1?
Answer: T/C (dose: 100.0 mg/kg/injection, schedule: Q01DX001 (ip), vehicle: Klucel (hydroxypropylcellulose) (HPC)): 100 % of control; T/C (dose: 200.0 mg/kg/injection, schedule: Q01DX001 (ip), vehicle: Klucel (hydroxypropylcellulose) (HPC)): 100 % of control; T/C (dose: 400.0 mg/kg/injection, schedule: Q01DX001 (ip), vehicle: Klucel (hydroxypropylcellulose) (HPC)): 100 % of control

Question: CC(C)NC(=O)c1ccccc1Sc1ccccc1 was tested. Which T/C [1] did it give?
Answer: The T/C was 100 % of control.

Question: And the T/C (dose: 100.0 mg/kg/injection, schedule: Q01DX009 (ip), vehicle: saline with Tween-80)?
Answer: Its T/C is 106 % of control.

Question: What about the T/C (dose: 200.0 mg/kg/injection, schedule: Q01DX009 (ip), vehicle: saline with Tween-80) of the same compound?
Answer: Its T/C is 108 % of control.

Question: With COC(=O)[CH](C[N+](=O)[O-])[Hg][Cl] (centres undefined) as the compound, how does the T/C (dose: 1.56 mg/kg/injection, schedule: Q01DX009 (ip), vehicle: Klucel (hydroxypropylcellulose) (HPC)) read?
Answer: Its T/C is 104 % of control.

Question: And the T/C (dose: 2.32 mg/kg/injection, schedule: Q04DX003 (ip), vehicle: Klucel (hydroxypropylcellulose) (HPC))?
Answer: Its T/C is 104 % of control.

Question: And the T/C (dose: 3.12 mg/kg/injection, schedule: Q01DX009 (ip), vehicle: Klucel (hydroxypropylcellulose) (HPC))?
Answer: Its T/C is 113 % of control.

Question: And the T/C (dose: 4.65 mg/kg/injection, schedule: Q04DX003 (ip), vehicle: Klucel (hydroxypropylcellulose) (HPC))?
Answer: Its T/C is 113 % of control.

Question: Which results are given for CN(CCO)C1=C(N2CC2)C(=O)C(N(C)CCO)=C(N2CC2)C1=O?
Answer: T/C (dose: 200.0 micrograms/kg/injection, schedule: Q01DX009 (ip), vehicle: saline): 116 % of control; T/C (dose: 400.0 micrograms/kg/injection, schedule: Q01DX009 (ip), vehicle: saline): 157 % of control; T/C (dose: 800.0 micrograms/kg/injection, schedule: Q01DX009 (ip), vehicle: saline): 228 % of control

Question: With Cc1ccc(S(=O)(=O)OCC(CO)(COS(=O)(=O)c2ccc(C)cc2)[N+](=O)[O-])cc1 as the compound, how does the T/C [2] read?
Answer: Its T/C is 100 % of control.

Question: What about the T/C [3] of the same compound?
Answer: The T/C was 113 % of control.

Question: What about the T/C (dose: 200.0 mg/kg/injection, schedule: Q01DX009 (ip), vehicle: Klucel (hydroxypropylcellulose) (HPC)) of the same compound?
Answer: The T/C was 95 % of control.

Question: What about the T/C [4] of the same compound?
Answer: Its T/C is 121 % of control.

Question: What about the T/C (dose: 400.0 mg/kg/injection, schedule: Q04DX003 (ip), vehicle: Klucel (hydroxypropylcellulose) (HPC)) of the same compound?
Answer: Its T/C is 121 % of control.

Question: Which results are given for CCCCCCCCCC[N+](C)(C)CC(O)C[N+](C)(C)CCCCCCCCCC?
Answer: T/C [5]: 91 % of control and 109 % of control; T/C [6]: 104 % of control; T/C (dose: 3.13 mg/kg/injection, schedule: Q01DX009 (ip), vehicle: saline): 100 % of control and 108 % of control; T/C [7]: 100 % of control and 109 % of control and 120 % of control; T/C [8]: 107 % of control and 109 % of control and 111 % of control

Question: Which results are given for O=C(O/N=C1\C2CCC(C2)C1Cl)c1ccc([N+](=O)[O-])cc1 (centres undefined)?
Answer: T/C (dose: 12.5 mg/kg/injection, schedule: Q04DX003 (ip), vehicle: saline): 100 % of control; T/C (dose: 25.0 mg/kg/injection, schedule: Q04DX003 (ip), vehicle: saline): 96 % of control; T/C (dose: 50.0 mg/kg/injection, schedule: Q04DX003 (ip), vehicle: saline): 103 % of control

Question: How did the T/C [5] turn out when CC(=O)OCc1c(O)c2c(c(O)c1COC(C)=O)C(=O)C=CC2=O was run?
Answer: Its T/C is 107 % of control.

Question: What about the T/C [6] of the same compound?
Answer: The T/C was 96 % of control.

Question: What about the T/C [7] of the same compound?
Answer: Its T/C is 105 % of control.

Question: And the T/C [8]?
Answer: The T/C was 87 % of control.

Question: And the T/C (dose: 25.0 mg/kg/injection, schedule: Q01DX009 (ip), vehicle: saline)?
Answer: The T/C was 94 % of control.

Question: What does the source list for CC1(C)C=C(C(Br)c2ccc(Cl)cc2)C(=O)c2ccccc21 (centres undefined)?
Answer: T/C (dose: 50.0 mg/kg/injection, schedule: Q01DX009 (ip), vehicle: Klucel (hydroxypropylcellulose) (HPC)): 100 % of control; T/C (dose: 50.0 mg/kg/injection, schedule: Q04DX003 (ip), vehicle: Klucel (hydroxypropylcellulose) (HPC)): 100 % of control; T/C [2]: 100 % of control and 105 % of control; T/C (dose: 100.0 mg/kg/injection, schedule: Q01DX009 (ip), vehicle: saline): 160 % of control; T/C [3]: 90 % of control; T/C [4]: 100 % of control; T/C (dose: 400.0 mg/kg/injection, schedule: Q01DX009 (ip), vehicle: Klucel (hydroxypropylcellulose) (HPC)): 95 % of control

Question: Cc1ccc(Sc2cccc3c(C)c4cccc5c4c(c23)C[S+]5c2ccc(C)cc2)cc1 (centres undefined) was tested. Which T/C (dose: 1.5 mg/kg/injection, schedule: Q04DX003 (ip), vehicle: saline with Tween-80) did it give?
Answer: Its T/C is 100 % of control.

Question: What about the T/C (dose: 3.0 mg/kg/injection, schedule: Q04DX003 (ip), vehicle: saline with Tween-80) of the same compound?
Answer: Its T/C is 104 % of control.

Question: What about the T/C (dose: 6.0 mg/kg/injection, schedule: Q04DX003 (ip), vehicle: saline with Tween-80) of the same compound?
Answer: Its T/C is 100 % of control.

Question: With CCN(CCO)CC(C)Nc1ccc([N+](=O)[O-])c2sc3ccccc3c(=O)c12 (centres undefined) as the compound, how does the T/C (dose: 33.0 mg/kg/injection, schedule: Q01DX009 (ip), vehicle: saline with Tween-80) read?
Answer: Its T/C is 195 % of control.

Question: And the T/C [1]?
Answer: The T/C was 177 % of control.

Question: What about the T/C (dose: 66.0 mg/kg/injection, schedule: Q04DX003 (ip), vehicle: saline with Tween-80) of the same compound?
Answer: The T/C was 162 % of control.

Question: And the T/C (dose: 75.0 mg/kg/injection, schedule: Q01DX009 (ip), vehicle: saline with Tween-80)?
Answer: Its T/C is 95 % of control.

Question: What about the T/C (dose: 100.0 mg/kg/injection, schedule: Q04DX003 (ip), vehicle: saline with Tween-80) of the same compound?
Answer: Its T/C is 191 % of control and 200 % of control.

Question: What about the T/C (dose: 150.0 mg/kg/injection, schedule: Q04DX003 (ip), vehicle: saline with Tween-80) of the same compound?
Answer: The T/C was 220 % of control.

Question: What about the T/C (dose: 200.0 mg/kg/injection, schedule: Q04DX003 (ip), vehicle: saline with Tween-80) of the same compound?
Answer: The T/C was 113 % of control.

Question: And the T/C (dose: 400.0 mg/kg/injection, schedule: Q04DX003 (ip), vehicle: saline with Tween-80)?
Answer: The T/C was 95 % of control.
